{"source": "patent US12318393B2", "about": "“Modulators of orphan nuclear receptors for NASH and other metabolic disorders” (Emory University, priority 2018, dated 2025)", "key": {"[1]": {"test_system": "C57BL/6 mice fed with atherogenic diet", "assay": "Atherogenic (fibrotic) diet mouse model: liver damage, inflammation, fibrosis", "assay_type": "in vivo", "procedure": "Male C57BL/6J mice, 7 to 8 weeks old, were housed randomly in standard cages and were fed a HFD, or atherogenic diet (consisting 1% Chol and 0.5% cholic acid, see also Table 3). All mice had free access to water during the experimental period. During the feeding period body weight was monitored every 3 days. In the HFD experiment, after 4 or 6 weeks, the resultant obese mice were treated with antagomiR-122 ([…] once a week for 3 weeks), or i.p. injected with Compound 1 (RORα agonist, 7.5 mg/kg twice a week for 3 weeks; or 15 mg/kg 3 times a week for 3 weeks). The obese control (HFD) group was administered only saline with DMSO and antagomiR-control. After 3 weeks of treatment mice were sacrificed and livers were taken for RNA-seq analysis. Livers, white adipose, and skeletal muscle tissues were frozen in liquid nitrogen or in optimum cutting temperature embedded frozen blocks, for further RNA and histologic analysis. In the atherogenic diet experiment mice were treated with 15 mg/kg Compound 1 after 3 weeks with the diet. After 3.5 weeks of treatment, mice were sacrificed, and the livers were frozen in liquid nitrogen or in optimum cutting temperature embedded frozen blocks. Plasma was collected from atherogenic diet-fed mice and saved in −20° C. for ALT and AST analysis using the Reflotron® Analyzer and test-strips (Roche).\nLivers and adipose samples were placed in 4% buffered formaldehyde for 24 hours, followed by 80% ethanol and then embedded in paraffin blocks. Liver and adipose tissues were cut into […], deparaffinized with xylene and hydrated through graded ethanol. For the H&E staining, tissue sections were stained with hematoxylin (Emmonya Biotech Ltd.) and eosin (Leica, Surgipath). Liver macrophages were stained using rat anti-mouse F4/80 antigen (Serotec), followed by anti-Rat HRP (Histofine) and developed with a DAB kit (Zymed). Liver sections were stained for Masson Trichrome (Sigma). Liver CD3+ T cells were stained using Rat anti human-CD3-antibody (Bio-Rad), followed by anti-Rat HRP (Histofine) and developed with AEC (Invitrogen). α-SMA positive cells were stained using mouse anti-Human smooth Muscle Actin antibody (Dako), followed by anti-mouse HRP (Dako) and developed with DAB. The percentage area stained positively per high power field was calculated by ImageJ Software in 5-10 random fields.\nExperimental design: C57BL/6 mice fed for 3 weeks with atherogenic diet (to induce fibrosis) and injected with 15 mg/kg Compound 1 (or saline+DMSO) 3 times a week for 3.5 week (n=8).\nExperimental design: C57BL/6 mice fed for 3 weeks with atherogenic diet (to induce fibrosis) and injected with 15 mg/kg Compound 1 (or saline+DMSO) 3 times a week for 3.5 week (n=8). Representative microphotographs of H&E, CD3, and F4/80-stained livers taken from saline or Compound 1-treated mice are shown in FIG. 12A, where scale bars represent 10 μm. The graphs shown in FIG. 12B show quantification of positively-stained F4/80 areas using ImageJ."}, "RORα": {"target": "T1, RORα (Homo sapiens, UniProt P35398)", "T1 construct": "endogenous in cells; host or cells: Huh-7 (human hepatocellular carcinoma cells)", "T1 sequence (P35398 1-523)": "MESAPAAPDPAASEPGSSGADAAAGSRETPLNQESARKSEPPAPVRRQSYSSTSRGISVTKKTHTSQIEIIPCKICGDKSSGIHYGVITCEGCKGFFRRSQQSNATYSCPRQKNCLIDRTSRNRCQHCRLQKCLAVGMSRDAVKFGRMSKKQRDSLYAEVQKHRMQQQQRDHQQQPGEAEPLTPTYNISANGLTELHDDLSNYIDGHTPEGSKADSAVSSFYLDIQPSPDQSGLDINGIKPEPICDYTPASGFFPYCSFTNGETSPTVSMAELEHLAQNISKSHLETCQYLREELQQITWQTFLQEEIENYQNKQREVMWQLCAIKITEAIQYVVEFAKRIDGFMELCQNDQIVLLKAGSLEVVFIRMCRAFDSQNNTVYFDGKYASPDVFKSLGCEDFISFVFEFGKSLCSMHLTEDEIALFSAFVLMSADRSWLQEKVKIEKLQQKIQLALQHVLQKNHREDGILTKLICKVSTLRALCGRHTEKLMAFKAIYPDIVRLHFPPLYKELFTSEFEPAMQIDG", "assay": "RORα activity by luciferase reporter (miR-122 promoter with WT or mutated RORE) in Huh-7 cells", "assay_type": "cell-based", "details": "24 hours of treatment", "procedure": "Huh-7 cells were transfected with a luciferase reporter plasmid containing the miR-122 promoter (extends to −900 from the transcription start site) with intact wild-type (WT) RORα response element (RORE) or mutated RORE (mut). The cells were treated with Compound 1 one day (24 hours) post-transfection at the indicated concentrations. Luciferase expression was measured after 24 hours of treatment and normalized to Renilla Luciferase activity expressed from a co-transfected pRL plasmid. The pRL Vector, which provides constitutive expression of Renilla luciferase, was used in combination with a firefly luciferase vector to co-transfect cells. […]\nLuciferase assay. […] Firefly and Renilla luciferase activity was assessed using the Dual Luciferase Reporter Assay system (Promega). Readings were taken in triplicates on a Mithras LB 940 Luminometer (Berthold Technologies). […]\nFollowing transfections, the cells were lysed with passive lysis buffer (Cat #E1941; Promega), shaking for 20 min at RT and transferred into appropriate 96-well plate. Firefly and Renilla luciferase activity was assessed using the Dual Luciferase Reporter Assay system (Cat #E1910; Promega) on a luminometer Mithras 2000 (Centro XZ, LB960, Berthold Technologies, Bad Wildbad, Germany). […] Readings were taken in triplicate."}, "[2]": {"details": "15 mg/kg 3 times a week for 3.5 weeks"}, "[3]": {"details": "liver, 15 mg/kg 3 times a week for 3.5 weeks"}, "[4]": {"details": "liver, 15 mg/kg 3 times a week for 3.5 weeks, vs untreated"}}}
{"smiles": "O=C1Nc2cc(C(=O)N3CCC(Cc4ccccc4)CC3)ccc2Nc2ccccc21", "note": "[Compound 1]", "values": [{"measurement": "biomarkers of inflammation (Tgfb2 and TgfbR2) and fibrosis (Acta1, Col1A1 and Col3A1), liver mRNA", "setting": "[1]; [2]", "value": "reducing"}, {"measurement": "biomarkers of liver injury, AST and ALT (plasma)", "setting": "[1]; [2]", "value": "significantly improved"}, {"measurement": "mature miR-122 in tissue and in plasma", "setting": "[1]; [2]", "value": "increased"}, {"measurement": "liver vasculature (CD34 staining)", "setting": "[1]; data not shown", "value": "no effect"}, {"measurement": "T-cell density by CD3 staining", "setting": "[1]; [3]", "value": "decreased"}, {"measurement": "immune infiltrate by H&E staining", "setting": "[1]; [3]", "value": "decreased"}, {"measurement": "levels of myeloid infiltrate by F4/80 staining", "setting": "[1]; [3]", "value": "decreased"}, {"measurement": "reduction of fibrotic areas, Masson Trichrome (M.T)", "setting": "[1]; [4]", "value": 5, "unit": "fold"}, {"measurement": "reduction of fibrotic areas, α-SMA", "setting": "[1]; [4]", "value": 7, "unit": "fold"}, {"measurement": "luciferase expression, mutated RORE", "setting": "RORα; Huh-7, miR-122 promoter reporter with mutated RORE", "value": "negates activity"}, {"measurement": "luciferase expression, WT RORE", "setting": "RORα; Huh-7, miR-122 promoter reporter with wild-type RORE", "value": "dose-dependent increase"}]}
